Where a name gives a salt, the structure may show the parent alone.
Assays:
COPD patients = conditions: cited from earlier work
[1] = test system: atopic dermatitis patients; conditions: 0.5% ointment, twice daily topical application; cited from earlier work
[2] = molecular target: T1, PDE4B (human recombinant) (Homo sapiens, UniProt Q07343); assay: Inhibition of PDE4B activity: SPA and/or Fluorescence Polarisation (FP) assay; assay type: biochemical; conditions: one reading (n=1) or average of 2 or more readings, read-out: PDE4B pIC50 (±about 0.5) (converted)
T1 construct: made in house
Method in brief: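 Human recombinant PDE4B activity measured by SPA with [3H]cAMP at about 10 nM, 1 h at ambient temperature, enzyme set for ≤20% substrate hydrolysis, or by IMAP FP with Fl-cAMP at about 40 nM, 40 min at ambient temperature under linear conditions. Inhibition curves fitted; values reported as pIC50.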

T1 sequence (Q07343 1-564 isoform Q07343-2): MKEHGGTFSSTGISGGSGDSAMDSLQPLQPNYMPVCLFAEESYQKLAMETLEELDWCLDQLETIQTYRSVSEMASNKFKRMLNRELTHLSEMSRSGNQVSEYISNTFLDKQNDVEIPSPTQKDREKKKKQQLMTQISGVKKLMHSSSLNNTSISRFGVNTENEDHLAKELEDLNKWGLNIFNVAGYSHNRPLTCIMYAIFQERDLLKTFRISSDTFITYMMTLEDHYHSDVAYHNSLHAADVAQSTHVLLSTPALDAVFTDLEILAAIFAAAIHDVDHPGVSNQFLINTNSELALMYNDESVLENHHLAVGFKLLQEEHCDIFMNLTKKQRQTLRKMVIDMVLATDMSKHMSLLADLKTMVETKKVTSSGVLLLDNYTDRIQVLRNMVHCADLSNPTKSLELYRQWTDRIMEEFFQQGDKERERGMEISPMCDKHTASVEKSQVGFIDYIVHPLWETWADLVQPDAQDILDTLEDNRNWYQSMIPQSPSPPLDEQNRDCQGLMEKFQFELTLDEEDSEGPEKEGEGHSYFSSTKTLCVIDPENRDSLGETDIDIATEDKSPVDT

In the case of `COc1ccc([C@]2(C#N)CC[C@@H](C(=O)O)CC2)cc1OC1CCCC1` [cilomilast], the “forced expiratory volume in 1s (FEV1) in COPD patients” value (COPD patients; 15 mg orally twice daily) is given as “appears to improve forced expiratory volume in 1s (FEV1)” and the “antiinflammatory effects in COPD patients” value (COPD patients; human, in vivo) is given as “appears to have antiinflammatory effects”.
For `COc1ccc(C2CNC(=O)NC2)cc1O[C@H]1C[C@@H]2CC[C@H]1C2` [CP80,633], the “inflammatory parameters in atopic dermatitis patients” value [1] is given as “reductions of inflammatory parameters”.
Work on `CCn1ncc2c(NC3CCOCC3)c(CNC(=O)c3cnc(C(C)(C)C)nc3)c(C)nc21` [Example 336, 2-(1,1-dimethylethyl)-N-{[1-ethyl-6-methyl-4-(tetrahydro-2H-pyran-4-ylamino)-1H-pyrazolo[3,4-b]pyridin-5-yl]methyl}-5-pyrimidinecarboxamide] yielded an IC50 [2] of 0.126 to 1 nM.
With `CCc1nc2c(cnn2CC)c(NC2CCOCC2)c1CNC(=O)c1ccc(S(C)(=O)=O)cc1` [Example 249, N-{[1,6-diethyl-4-(tetrahydro-2H-pyran-4-ylamino)-1H-pyrazolo[3,4-b]pyridin-5-yl]methyl}-4-(methylsulfonyl)benzamide] the IC50 [2] was 0.126 to 1 nM.
Work on `CCn1ncc2c(NC3CCOCC3)c(CNC(=O)c3cncs3)c(C)nc21` [Example 226, N-{[1-ethyl-6-methyl-4-(tetrahydro-2H-pyran-4-ylamino)-1H-pyrazolo[3,4-b]pyridin-5-yl]methyl}-1,3-thiazole-5-carboxamide] yielded an IC50 [2] of 0.126 to 1 nM.
In the case of `CCn1ncc2c(NC3CCOCC3)c(CNC(=O)c3ccc(C(N)=O)cc3)c(C)nc21` [Example 279, N-{[1-ethyl-6-methyl-4-(tetrahydro-2H-pyran-4-ylamino)-1H-pyrazolo[3,4-b]pyridin-5-yl]methyl}-1,4-benzenedicarboxamide], the IC50 [2] is reported as 0.126 to 1 nM.
In the case of `CCc1nc2c(cnn2CC)c(NC2CCN(C(N)=O)CC2)c1CNC(=O)c1ccc(NC(C)=O)c2c1OCC2` [Example 304, 4-({5-[({[4-(acetylamino)-2,3-dihydro-1-benzofuran-7-yl]carbonyl}amino)methyl]-1,6-diethyl-1H-pyrazolo[3,4-b]pyridin-4-yl}amino)-1-piperidinecarboxamide], the IC50 [2] is reported as 0.01 to 0.1 nM.
Work on `CCn1ncc2c(NC3CCOCC3)c(CNC(=O)c3ccc(N4CCCCC4)cc3)c(C)nc21` [Example 116, N-{[1-ethyl-6-methyl-4-(tetrahydro-2H-pyran-4-ylamino)-1H-pyrazolo[3,4-b]pyridin-5-yl]methyl}-4-(1-piperidinyl)benzamide] yielded an IC50 [2] of 0.01 to 0.1 nM.
Compound `CCc1nc2c(cnn2CC)c(NC2CCOCC2)c1CNC(=O)c1ccc(C2CCCC2)cc1` [Example 184, 4-cyclopentyl-N-{[1,6-diethyl-4-(tetrahydro-2H-pyran-4-ylamino)-1H-pyrazolo[3,4-b]pyridin-5-yl]methyl}benzamide] has an IC50 [2] of 0.01 to 0.1 nM.
For `CCn1ncc2c(NC3CCN(C(N)=O)CC3)c(CNC(=O)c3ccccc3O)c(C)nc21` [Example 260, 4-{[1-ethyl-5-({[(2-hydroxyphenyl)carbonyl]amino}methyl)-6-methyl-1H-pyrazolo[3,4-b]pyridin-4-yl]amino}-1-piperidinecarboxamide], the IC50 [2] was 0.01 to 0.1 nM.
In the case of `CCc1nc2c(cnn2CC)c(NC2CCOCC2)c1CNC(=O)N1CCCC1` [Example 289, N-{[1,6-diethyl-4-(tetrahydro-2H-pyran-4-ylamino)-1H-pyrazolo[3,4-b]pyridin-5-yl]methyl}-1-pyrrolidinecarboxamide], the IC50 [2] is reported as 0.126 to 1 nM.
In the case of `CCn1ncc2c(NC3CCN(C(N)=O)CC3)c(CNC(=O)c3ccccc3F)c(C)nc21` [Example 266, 4-{[1-ethyl-5-({[(2-fluorophenyl)carbonyl]amino}methyl)-6-methyl-1H-pyrazolo[3,4-b]pyridin-4-yl]amino}-1-piperidinecarboxamide], the IC50 [2] is reported as 0.126 to 1 nM.
In the case of `CCn1ncc2c(NC3CCOCC3)c(CNC(=O)c3ccc(C(C)C)cc3)c(C)nc21` [Example 278, N-{[1-ethyl-6-methyl-4-(tetrahydro-2H-pyran-4-ylamino)-1H-pyrazolo[3,4-b]pyridin-5-yl]methyl}-4-(1-methylethyl)benzamide], the IC50 [2] is reported as 0.01 to 0.1 nM.
Work on `CCc1nc2c(cnn2CC)c(NC2CCOCC2)c1CNC(=O)c1ccc(C(N)=O)cc1` [Example 253, N-{[1,6-diethyl-4-(tetrahydro-2H-pyran-4-ylamino)-1H-pyrazolo[3,4-b]pyridin-5-yl]methyl}-1,4-benzenedicarboxamide] yielded an IC50 [2] of 0.01 to 0.1 nM.
Work on `CCn1ncc2c(NC3CCN(C(N)=O)CC3)c(CNC(=O)c3ccc(NC(C)=O)c4c3OCC4)c(C)nc21` [Example 305, 4-({5-[({[4-(acetylamino)-2,3-dihydro-1-benzofuran-7-yl]carbonyl}amino)methyl]-1-ethyl-6-methyl-1H-pyrazolo[3,4-b]pyridin-4-yl}amino)-1-piperidinecarboxamide] yielded an IC50 [2] of 0.01 to 0.1 nM.
Compound `CCc1nc2c(cnn2CC)c(NC2CCOCC2)c1CNC(=O)c1cnco1` [Example 239, N-{[1,6-diethyl-4-(tetrahydro-2H-pyran-4-ylamino)-1H-pyrazolo[3,4-b]pyridin-5-yl]methyl}-1,3-oxazole-5-carboxamide] has an IC50 [2] of 0.126 to 1 nM.
In the case of `CCc1nc2c(cnn2CC)c(NC2CCOCC2)c1CNC(=O)c1ccc(-n2cccc2)nc1` [Example 148, N-{[1,6-diethyl-4-(tetrahydro-2H-pyran-4-ylamino)-1H-pyrazolo[3,4-b]pyridin-5-yl]methyl}-6-(1H-pyrrol-1-yl)-3-pyridinecarboxamide], the IC50 [2] is reported as 0.01 to 0.1 nM.
`CCc1nc2c(cnn2CC)c(NC2CCOCC2)c1CNC(=O)c1ccc(C(F)(F)F)nc1` [Example 326, N-{[1,6-diethyl-4-(tetrahydro-2H-pyran-4-ylamino)-1H-pyrazolo[3,4-b]pyridin-5-yl]methyl}-6-(trifluoromethyl)-3-pyridinecarboxamide] showed an IC50 [2] of 0.126 to 1 nM.
`CCc1nc2c(cnn2CC)c(NC2CCOCC2)c1CNC(=O)c1ccc(C(C)(C)C)cc1O` [Example 256, N-{[1,6-diethyl-4-(tetrahydro-2H-pyran-4-ylamino)-1H-pyrazolo[3,4-b]pyridin-5-yl]methyl}-4-(1,1-dimethylethyl)-2-hydroxybenzamide] gave an IC50 [2] of 0.01 to 0.1 nM.
`CCc1nc2c(cnn2CC)c(NC2CCOCC2)c1CN1CCN(C)C1=O` [Example 343, 1-{[1,6-diethyl-4-(tetrahydro-2H-pyran-4-ylamino)-1H-pyrazolo[3,4-b]pyridin-5-yl]methyl}-3-methyl-2-imidazolidinone] gave an IC50 [2] of 0.126 to 1 nM.
Compound `CCc1nc2c(cnn2CC)c(NC2CCOCC2)c1CNC(=O)c1ccncc1F` [Example 231, N-{[1,6-diethyl-4-(tetrahydro-2H-pyran-4-ylamino)-1H-pyrazolo[3,4-b]pyridin-5-yl]methyl}-3-fluoro-4-pyridinecarboxamide] has an IC50 [2] of 0.126 to 1 nM.
Compound `CCn1ncc2c(NC3CCN(C(N)=O)CC3)c(CNC(=O)c3cccc(N4CCCC4=O)c3)c(C)nc21` [Example 267, 4-({1-ethyl-6-methyl-5-[({[3-(2-oxo-1-pyrrolidinyl)phenyl]carbonyl}amino)methyl]-1H-pyrazolo[3,4-b]pyridin-4-yl}amino)-1-piperidinecarboxamide] has an IC50 [2] of 0.01 to 0.1 nM.
`CCc1nc2c(cnn2CC)c(NC2CCN(C(N)=O)CC2)c1CNC(=O)c1ccc(C(C)C)cc1` [Example 208, 4-({1,6-diethyl-5-[({[4-(1-methylethyl)phenyl]carbonyl}amino)methyl]-1H-pyrazolo[3,4-b]pyridin-4-yl}amino)-1-piperidinecarboxamide] gave an IC50 [2] of 0.01 to 0.1 nM.
With `CCn1ncc2c(NC3CCN(C(N)=O)CC3)c(CNC(=O)c3cccc(NC(C)=O)c3)c(C)nc21` [Example 264, 4-({5-[({[3-(acetylamino)phenyl]carbonyl}amino)methyl]-1-ethyl-6-methyl-1H-pyrazolo[3,4-b]pyridin-4-yl}amino)-1-piperidinecarboxamide] the IC50 [2] was 0.01 to 0.1 nM.
For `CCc1nc2c(cnn2CC)c(NC2CCOCC2)c1CNC(=O)c1ccc2c(c1)CCC2` [Example 176, N-{[1,6-diethyl-4-(tetrahydro-2H-pyran-4-ylamino)-1H-pyrazolo[3,4-b]pyridin-5-yl]methyl}-2,3-dihydro-1H-indene-5-carboxamide], the IC50 [2] was 0.01 to 0.1 nM.
In the case of `CCc1nc2c(cnn2CC)c(NC2CCN(C(N)=O)CC2)c1CNC(=O)c1ccc(NC(C)=O)cc1` [Example 242, 4-({5-[({[4-(acetylamino)phenyl]carbonyl}amino)methyl]-1,6-diethyl-1H-pyrazolo[3,4-b]pyridin-4-yl}amino)-1-piperidinecarboxamide], the IC50 [2] is reported as 0.01 to 0.1 nM.
For `CCc1nc2c(cnn2CC)c(NC2CCOCC2)c1CNC(=O)c1ccnnc1` [Example 150, N-{[1,6-diethyl-4-(tetrahydro-2H-pyran-4-ylamino)-1H-pyrazolo[3,4-b]pyridin-5-yl]methyl}-4-pyridazinecarboxamide], the IC50 [2] was 0.126 to 1 nM.
`CCc1nc2c(cnn2CC)c(NC2CCOCC2)c1CNC(=O)c1ccc(C#N)nc1` [Example 325, 6-cyano-N-{[1,6-diethyl-4-(tetrahydro-2H-pyran-4-ylamino)-1H-pyrazolo[3,4-b]pyridin-5-yl]methyl}-3-pyridinecarboxamide] gave an IC50 [2] of 0.126 to 1 nM.
Work on `CCn1ncc2c(NC3CCOCC3)c(CNS(=O)(=O)c3cccs3)c(C)nc21` [Example 108, N-{[1-ethyl-6-methyl-4-(tetrahydro-2H-pyran-4-ylamino)-1H-pyrazolo[3,4-b]pyridin-5-yl]methyl}-2-thiophenesulfonamide] yielded an IC50 [2] of 0.126 to 1 nM.
`CCn1ncc2c(NC3CCN(C(N)=O)CC3)c(CNC(=O)c3ccc(C)c4c3OCC4)c(C)nc21` [Example 274, 4-{[1-ethyl-6-methyl-5-({[(4-methyl-2,3-dihydro-1-benzofuran-7-yl)carbonyl]amino}methyl)-1H-pyrazolo[3,4-b]pyridin-4-yl]amino}-1-piperidinecarboxamide] showed an IC50 [2] of 0.01 to 0.1 nM.
`CCn1ncc2c(NC3CCN(C(N)=O)CC3)c(CNC(=O)c3ccc(N4CCOCC4)cc3)c(C)nc21` [Example 303, 4-({1-ethyl-6-methyl-5-[({[4-(4-morpholinyl)phenyl]-carbonyl}amino)methyl]-1H-pyrazolo[3,4-b]pyridin-4-yl}amino)-1-piperidine-carboxamide, Formate Salt] showed an IC50 [2] of 0.01 to 0.1 nM.
